Experiments:
Assay in all cases: drug sensitivity score (DSS) from 5-point dose-response viability curve (DSS (area-under-curve based score)); higher = more sensitive (stronger growth inhibition or killing); extreme values may be limits of the assay
Settings in all cases: exposure time: 72 h; concentration range: 5 concentrations over 10,000-fold range
CAOV3 = tested on: CAOV3
Method in brief: (§1)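 For the drug sensitivity score, obtained per cell line and drug in Breeze software, larger values mean greater sensitivity. No response corresponds to a score of zero. Ovarian cancer and normal ovarian cells were seeded at 1,500 per well into 384-well plates already holding acoustically dispensed drugs (Echo 550, DMSO or water, five concentrations over a 10,000-fold range) and incubated 3 days at 37°C, 5% CO2. CellTiter-Glo luminescence on a PHERAstar FS gave the viability readout.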

Kuramochi = tested on: Kuramochi
Method in brief: as §1

OVCAR8 = tested on: OVCAR8
Method in brief: as §1

OVCAR4 = tested on: OVCAR4
Method in brief: as §1

OV90 = tested on: OV90
Method in brief: as §1

Ovsaho = tested on: Ovsaho
Method in brief: as §1

JHOS2 = tested on: JHOS2
Method in brief: as §1

HOSE1C = tested on: HOSE1C
Method in brief: as §1

OVCAR5 = tested on: OVCAR5
Method in brief: as §1

COV318 = tested on: COV318
Method in brief: as §1

HOSE2C = tested on: HOSE2C
Method in brief: as §1

COV362 = tested on: COV362
Method in brief: as §1

SMILES: COc1cc2nccc(Oc3ccc(NC(=O)C4(C(=O)Nc5ccc(F)cc5)CC4)cc3)c2cc1OC [Cabozantinib]
- drug sensitivity score (CAOV3): 0.4
- drug sensitivity score (Kuramochi): 3.1
- drug sensitivity score (OVCAR8): 0
- drug sensitivity score (OVCAR4): 0
- drug sensitivity score (OV90): 4.5
- drug sensitivity score (Ovsaho): 0
- drug sensitivity score (JHOS2): 1
- drug sensitivity score (HOSE1C): 0
- drug sensitivity score (OVCAR5): 1.5
- drug sensitivity score (COV318): 2.2
- drug sensitivity score (HOSE2C): 0.6
- drug sensitivity score (COV362): 0.2

SMILES: C=CC(=O)Nc1cc2c(Nc3ccc(F)c(Cl)c3)ncnc2cc1OCCCN1CCOCC1 [Canertinib]
- drug sensitivity score (CAOV3): 13.2
- drug sensitivity score (Kuramochi): 8
- drug sensitivity score (OVCAR8): 8.4
- drug sensitivity score (OVCAR4): 7.7
- drug sensitivity score (OV90): 7.3
- drug sensitivity score (Ovsaho): 8.3
- drug sensitivity score (JHOS2): 7.5
- drug sensitivity score (HOSE1C): 8.4
- drug sensitivity score (OVCAR5): 8
- drug sensitivity score (COV318): 4.3
- drug sensitivity score (HOSE2C): 8.2
- drug sensitivity score (COV362): 5.9

SMILES: CCCCCOC(=O)Nc1nc(=O)n([C@@H]2O[C@H](C)[C@@H](O)[C@H]2O)cc1F [Capecitabine]
- drug sensitivity score (CAOV3): 0.2
- drug sensitivity score (Kuramochi): 0
- drug sensitivity score (OVCAR8): 0
- drug sensitivity score (OVCAR4): 0
- drug sensitivity score (OV90): 0
- drug sensitivity score (Ovsaho): 0
- drug sensitivity score (JHOS2): 0
- drug sensitivity score (HOSE1C): 0.3
- drug sensitivity score (OVCAR5): 0.3
- drug sensitivity score (COV318): 0
- drug sensitivity score (HOSE2C): 0
- drug sensitivity score (COV362): 0

SMILES: CNC(=O)c1ccc(-c2cnc3ncc(Cc4ccc5ncccc5c4)n3n2)cc1F [Capmatinib]
- drug sensitivity score (CAOV3): 0
- drug sensitivity score (Kuramochi): 0.1
- drug sensitivity score (OVCAR8): 0
- drug sensitivity score (OVCAR4): 0
- drug sensitivity score (OV90): 0
- drug sensitivity score (Ovsaho): 0
- drug sensitivity score (JHOS2): 0
- drug sensitivity score (HOSE1C): 0
- drug sensitivity score (OVCAR5): 0
- drug sensitivity score (COV318): 0
- drug sensitivity score (HOSE2C): 0
- drug sensitivity score (COV362): 0

SMILES: O=C(O)C1(C(=O)O)CCC1.[NH2-].[NH2-].[Pt+2] [Carboplatin]
- drug sensitivity score (CAOV3): 6.1
- drug sensitivity score (Kuramochi): 4.9
- drug sensitivity score (OVCAR8): 1.9
- drug sensitivity score (OVCAR4): 5.6
- drug sensitivity score (OV90): 3.6
- drug sensitivity score (Ovsaho): 5.5
- drug sensitivity score (JHOS2): 3.1
- drug sensitivity score (HOSE1C): 7.8
- drug sensitivity score (OVCAR5): 4.7
- drug sensitivity score (COV318): 5.5
- drug sensitivity score (HOSE2C): 5
- drug sensitivity score (COV362): 0

SMILES: CC(C)C[C@H](NC(=O)[C@H](CCc1ccccc1)NC(=O)CN1CCOCC1)C(=O)N[C@@H](Cc1ccccc1)C(=O)N[C@@H](CC(C)C)C(=O)[C@@]1(C)CO1 [Carfilzomib]
- drug sensitivity score (CAOV3): 24.6
- drug sensitivity score (Kuramochi): 12.4
- drug sensitivity score (OVCAR8): 21.5
- drug sensitivity score (OVCAR4): 23.4
- drug sensitivity score (OV90): 27.6
- drug sensitivity score (Ovsaho): 28.4
- drug sensitivity score (JHOS2): 25.5
- drug sensitivity score (HOSE1C): 27.4
- drug sensitivity score (OVCAR5): 24
- drug sensitivity score (COV318): 26.5
- drug sensitivity score (HOSE2C): 28.4
- drug sensitivity score (COV362): 20.2

SMILES: COc1cc2c(Oc3ccc4[nH]c(C)cc4c3F)ncnc2cc1OCCCN1CCCC1 [Cediranib]
- drug sensitivity score (CAOV3): 0
- drug sensitivity score (Kuramochi): 0
- drug sensitivity score (OVCAR8): 0
- drug sensitivity score (OVCAR4): 0.5
- drug sensitivity score (OV90): 0
- drug sensitivity score (Ovsaho): 0.7
- drug sensitivity score (JHOS2): 0
- drug sensitivity score (HOSE1C): 0
- drug sensitivity score (OVCAR5): 0
- drug sensitivity score (COV318): 0.2
- drug sensitivity score (HOSE2C): 0
- drug sensitivity score (COV362): 0

SMILES: Cc1ccc(-c2cc(C(F)(F)F)nn2-c2ccc(S(N)(=O)=O)cc2)cc1 [Celecoxib]
- drug sensitivity score (CAOV3): 0
- drug sensitivity score (Kuramochi): 0
- drug sensitivity score (OVCAR8): 0
- drug sensitivity score (OVCAR4): 0
- drug sensitivity score (OV90): 0
- drug sensitivity score (Ovsaho): 0
- drug sensitivity score (JHOS2): 0
- drug sensitivity score (HOSE1C): 0
- drug sensitivity score (OVCAR5): 0
- drug sensitivity score (COV318): 0
- drug sensitivity score (HOSE2C): 0
- drug sensitivity score (COV362): 0

SMILES: CCS(=O)(=O)N1CCN(c2ccc(Nc3ncc(C(N)=O)c(NC4CC4)n3)cc2)CC1 [Cerdulatinib]
- drug sensitivity score (CAOV3): 0.2
- drug sensitivity score (Kuramochi): 0
- drug sensitivity score (OVCAR8): 0
- drug sensitivity score (OVCAR4): 0.3
- drug sensitivity score (OV90): 0.6
- drug sensitivity score (Ovsaho): 0
- drug sensitivity score (JHOS2): 3.5
- drug sensitivity score (HOSE1C): 0
- drug sensitivity score (OVCAR5): 0
- drug sensitivity score (COV318): 0
- drug sensitivity score (HOSE2C): 0.8
- drug sensitivity score (COV362): 2.7

SMILES: Cc1cc(Nc2ncc(Cl)c(Nc3ccccc3S(=O)(=O)C(C)C)n2)c(OC(C)C)cc1C1CCNCC1 [Ceritinib]
- drug sensitivity score (CAOV3): 2.7
- drug sensitivity score (Kuramochi): 2.1
- drug sensitivity score (OVCAR8): 0
- drug sensitivity score (OVCAR4): 1.5
- drug sensitivity score (OV90): 4.9
- drug sensitivity score (Ovsaho): 3.3
- drug sensitivity score (JHOS2): 0
- drug sensitivity score (HOSE1C): 0.7
- drug sensitivity score (OVCAR5): 3.8
- drug sensitivity score (COV318): 0.8
- drug sensitivity score (HOSE2C): 2.2
- drug sensitivity score (COV362): 0

SMILES: CC(C)[C@H]1C(=O)N[C@@H](CCCNC(=N)N)C(=O)NCC(=O)N[C@@H](CC(=O)O)C(=O)N[C@H](Cc2ccccc2)C(=O)N1C [Cilengitide]
- drug sensitivity score (CAOV3): 0
- drug sensitivity score (Kuramochi): 5.4
- drug sensitivity score (OVCAR8): 0.2
- drug sensitivity score (OVCAR4): 2.9
- drug sensitivity score (OV90): 2.5
- drug sensitivity score (Ovsaho): 17.7
- drug sensitivity score (JHOS2): 1.6
- drug sensitivity score (HOSE1C): 0
- drug sensitivity score (OVCAR5): 1.1
- drug sensitivity score (COV318): 0
- drug sensitivity score (HOSE2C): 3.5
- drug sensitivity score (COV362): 5.6

SMILES: N.N.[Cl][Pt][Cl] [Cisplatin]
- drug sensitivity score (CAOV3): 16.5
- drug sensitivity score (Kuramochi): 11.2
- drug sensitivity score (OVCAR8): 5
- drug sensitivity score (OVCAR4): 10.7
- drug sensitivity score (OV90): 4.8
- drug sensitivity score (Ovsaho): 15.7
- drug sensitivity score (JHOS2): 4.3
- drug sensitivity score (HOSE1C): 18.3
- drug sensitivity score (OVCAR5): 8.8
- drug sensitivity score (COV318): 11.7
- drug sensitivity score (HOSE2C): 16.4
- drug sensitivity score (COV362): 3.3

SMILES: Nc1nc(Cl)nc2c1ncn2[C@H]1C[C@H](O)[C@@H](CO)O1 [Cladribine]
- drug sensitivity score (CAOV3): 4.2
- drug sensitivity score (Kuramochi): 0
- drug sensitivity score (OVCAR8): 9.8
- drug sensitivity score (OVCAR4): 0
- drug sensitivity score (OV90): 1.6
- drug sensitivity score (Ovsaho): 0.1
- drug sensitivity score (JHOS2): 3.1
- drug sensitivity score (HOSE1C): 0
- drug sensitivity score (OVCAR5): 2.1
- drug sensitivity score (COV318): 0
- drug sensitivity score (HOSE2C): 0
- drug sensitivity score (COV362): 0.1

SMILES: Nc1nc(Cl)nc2c1ncn2[C@@H]1O[C@H](CO)[C@@H](O)[C@@H]1F [Clofarabine]
- drug sensitivity score (CAOV3): 17.1
- drug sensitivity score (Kuramochi): 3
- drug sensitivity score (OVCAR8): 22.4
- drug sensitivity score (OVCAR4): 0
- drug sensitivity score (OV90): 11.9
- drug sensitivity score (Ovsaho): 4.7
- drug sensitivity score (JHOS2): 13.5
- drug sensitivity score (HOSE1C): 25
- drug sensitivity score (OVCAR5): 9.5
- drug sensitivity score (COV318): 4.7
- drug sensitivity score (HOSE2C): 24.1
- drug sensitivity score (COV362): 7.3

SMILES: CCN(CC)CCOc1ccc(C(=C(Cl)c2ccccc2)c2ccccc2)cc1 [Clomifene]
- drug sensitivity score (CAOV3): 3.2
- drug sensitivity score (Kuramochi): 3.9
- drug sensitivity score (OVCAR8): 3.1
- drug sensitivity score (OVCAR4): 1.9
- drug sensitivity score (OV90): 6.9
- drug sensitivity score (Ovsaho): 3.2
- drug sensitivity score (JHOS2): 3.8
- drug sensitivity score (HOSE1C): 5.8
- drug sensitivity score (OVCAR5): 7
- drug sensitivity score (COV318): 2.2
- drug sensitivity score (HOSE2C): 4.1
- drug sensitivity score (COV362): 4.4

From the supplement of paper PMC11616607
